Experimental findings from paper PMC13626384 (Journal of medicinal chemistry, 2025) are described below.

Read-outs that look alike come from different tables or passages of the source. Where only a bound is given, the exact number is not on record here.

In series [1] the test system is SF188 cell line. As to the kind of experiment: Cytotoxicity against SF188 cells. It counts as cell-based, human.
The target of series [2] is human immunoproteasome (i20S) β5 (Homo sapiens, UniProt P20618+P28062). As to the kind of experiment: Proteasome subunit inhibition, i20S β5. The class given is biochemical. The settings on record: read-out: i20S β5 IC50 ± SD; read 60 to 90 minutes after start.
The nature of series [3]: PAMPA-BBB permeability assay. As to conditions: PAMPA-BBB. For orientation: In PAMPA a lipid-coated filter parts donor from acceptor wells.
Series [4] has as its system H460 cell line. The series is described as follows: Cytotoxicity against H460 cells. It counts as cell-based.
The target of series [5] is human immunoproteasome (i20S) β1 (Homo sapiens, UniProt P28065+P40306). The series is described as follows: Proteasome subunit inhibition, i20S β1. It counts as biochemical.
In series [6] the target is human immunoproteasome (i20S) β2 (Homo sapiens, UniProt P40306+P49720). The series is described as follows: Proteasome subunit inhibition, i20S β2. The class given is biochemical.
Series [7] in a line: Plasma stability. The settings on record: for Plasma Stability % remaining: mouse plasma; for remaining at 2 h / remaining at 5 h: mouse, plasma, Plasma Stability % remaining. The class given is in vitro ADME.
The test system of series [8] is D283-med cell line. As to the kind of experiment: Cytotoxicity against D283-med cells. The settings on record: read-out: D283-med IC50. It counts as cell-based, human.
Series [9] in a line: Liver microsomal stability. The settings on record: mouse liver microsomes. In general terms: Liver microsomes are a subcellular fraction often used to study metabolism.
Series [10] in a line: in vitro. The settings on record: mouse liver microsomes.
The target of series [11] is human constitutive proteasome (c20S) β1 (Homo sapiens, UniProt P28072+Q99436). The series is described as follows: Proteasome subunit inhibition, c20S β1. It counts as biochemical.
The nature of series [12]: In vivo pharmacokinetics, plasma and brain. The settings on record: mice, 10 mg/kg i.v. Further details: species or system Male C57BL/6 mice.
The subject of series [13] is Caco-2 cells. As to the kind of experiment: Caco-2 cell permeability and efflux. It counts as in vitro ADME, human. As to conditions: for Efflux Ratio: Caco-2; for % Recovery (A-B): Caco-2, A-B direction; for % Recovery (B-A): Caco-2, B-A direction; for Pe (A-B): Caco-2, apical to basolateral; for Pe (B-A): Caco-2, basolateral to apical. Background: Caco-2 monolayers are a common model of the intestinal barrier.

Series [14] is described as follows: Caco-2 cell permeability and efflux. The class given is in vitro ADME, human. The settings on record: human.
The mark [15] stands for this setting: read-out: SF188 IC50, glioblastoma cell line.
Where [16] appears, read: read-out: H460 IC50, non-small cell lung cancer cell line.
The mark [17] stands for this setting: read-out: i20S β1 IC50 ± SD, read 60 to 90 minutes after start.
The mark [18] stands for this setting: read-out: i20S β2 IC50 ± SD, read 60 to 90 minutes after start.
The mark [19] stands for this setting: pretreated with tariquidar, 0.5 h.
Setting [20] is: Homo sapiens, SF-188, read-out: SF188 IC50, glioblastoma cell line.

In the case of `CC(C)C[C@H](NC(=O)[C@@H]1Cc2c(F)c(F)c(c(F)c2F)Sc2cccc(c2)CC(=O)N[C@@H]([C@@H](C)O)C(=O)N1)C(=O)[C@@]1(C)CO1` [Compound 14, (5S,8S)-3^2,3^3,3^5,3^6-Tetrafluoro-8-((R)-1-hydroxyethyl)-N-((S)-4-methyl-1-((R)-2-methyloxiran-2-yl)-1-oxopentan-2-yl)-7,10-dioxo-2-thia-6,9-diaza-1(1,3),3(1,4)-dibenzenacycloundecaphane-5-carboxamide], the IC50 (usually the concentration that gives 50% inhibition) was determined as 40 ± 9 nM in series [1] (setting [15]); 858 ± 342 nM in series [2]; 186 ± 52 nM in series [4] (setting [16]); 310 ± 39.5 nM in series [5] (setting [17]); 1060 ± 171 nM in [6] (setting [18]); 20 ± 1 nM in series [8] (medulloblastoma cell line). Moreover, the “% Recovery” value in series [3] is given as 53%. Also, the “Mean Permeability” value in series [3] is reported as 3.75 10^−6 cm/sec. For the same compound, the “Pe (effective permeability)” value in series [3] is given as “around 4 10^−6 cm s^−1”. Further, the “Plasma Stability % remaining” value in series [7] (after 5 hr) is “more than 75%”.

`C[C@@]12OC(=O)[C@]1([C@@H](O)[C@@H]1C=CCCC1)NC(=O)[C@@H]2CCCl` [Marizomib, reference compound]: the “Microsomal Stability Clearance Category” value in series [9] was “High”. Also, the concentration for half-maximal inhibition (IC50) in series [1] (Homo sapiens, SF-188, read-out: SF188 IC50) is 22 ± 4 nM; in series [4] (Homo sapiens, NCI-H460, read-out: H460 IC50), 73 ± 6 nM; in series [5], 40.5 ± 1.7 nM; in series [6], 207 ± 22.3 nM; in series [11] it was 336 ± 27.2 nM; in series [8] (Homo sapiens, D283 Med), 70 ± 3 nM. For the same compound, the half-life – broadly, the time in which the quantity being followed falls by half – in [10] is under 5 min. Also, the recovery in series [3] (PAMPA, % Recovery) worked out at 2%. Also, the apparent permeability (Papp) (as a rule, a coefficient for how fast a substance crosses the barrier) in series [3] (PAMPA, Mean Permeability) was 0.13 ×10⁻⁶ cm/s. The amount remaining (usually what is left of the initial amount, in per cent) at 2 h in series [7] (after 2 hr) stood at 20%.

In the case of “S)-N-((S)-4-Methyl-1-((R)-2-methyloxiran-2-yl)-1-oxopentan-2-yl)-8,11-dioxo-2-oxa-9,12-diaza-1(1,4)-benzenacyclotetradecaphane-13-carboxamide [Compound 35]”, in [9], the “Microsomal Stability Clearance Category” value is “Low”. The “Microsomal Stability mCLint” value in [9] turned out to be 10 µL/min/mg. The concentration for half-maximal inhibition (IC50) in [1] (setting [15]) stood at 806 ± 388 nM; in [2] it was 1900 ± 587 nM; in [4] (setting [16]), 853 ± 90 nM; in series [5] (setting [17]), 78.2 ± 5.3 nM; in [6] (setting [18]) it was 1750 ± 240 nM; in series [8] (medulloblastoma cell line) it was 332 ± 12 nM. Moreover, the “Mean B/P ratio” value in series [12] (alone, 1.0 h) is 0.08; in series [12] (setting [19]) it was 0.80. In addition, the “Mean Brain Con” value was 26.3 ng/g in series [12] (alone, 1.0 h); “below the quantification limit and BLQ” in series [12] (alone, 2.0 h, LLOQ 2.00 ng/mL, 10 mg/kg); 137.0 ng/g in series [12] (pretreated with tariquidar (13 mg/kg, i.p.), 0.5 h); “below the quantification limit and BLQ” in [12] (pretreated with tariquidar, 2.0 h, LLOQ 2.00 ng/mL). For the same compound, the “Mean Plasma Conc.” value in series [12] (alone, 1.0 h) is 330 ng/mL; in series [12] (alone, 2.0 h), 5.3 ng/mL; in series [12] (setting [19]), 165.7 ng/mL; in [12] (pretreated with tariquidar, 2.0 h), 5.0 ng/mL. Further, the Brain concentration in series [12] (compound by itself, 30 minutes) was 26 ng/mL; in [12] (tariquidar group, 30 minutes), 137 ng/mL. The Brain-to-plasma ratio in series [12] (compound by itself, 30 minutes) was determined as 0.08. In series [12] (with and without tariquidar), the “Plasma Cmax (average)” value is 2453 ng/mL. Further, in series [12] (with and without tariquidar), the Plasma half-life is ~ 0.25 hours. Also, the “Efflux Ratio” value in series [13] is on record as 2.5. Besides, the “% Recovery (A-B)” value in series [13] was found to be 98%. Further, the “% Recovery (B-A)” value in series [13] was found to be 93%. The “Pe (A-B)” value in [13] is 18.6 10^−6 cm/sec. In addition, in series [13], the “Pe (B-A)” value is 46.5 10^−6 cm/sec. Besides, the “% Recovery” value in series [3] is on record as 100%. Moreover, the “Mean Permeability” value in series [3] is given as 6.81 10^−6 cm/sec. In addition, the “Pe (effective permeability)” value in series [3] is on record as 6.8 10^−6 cm s^−1. Moreover, the “Plasma Stability % remaining” value is given as 64 after 2 hr % in series [7] (after 2 hr) and “more than 75%” in [7] (after 5 hr).

For the compound `CC(C)C[C@H](NC(=O)[C@@H]1CSCCCCCCCCCC(=O)N[C@@H](C(C)C)C(=O)N1)C(=O)[C@@]1(C)CO1` [Compound 39], in [9], the “Microsomal Stability Clearance Category” value was “Medium”, the “Microsomal Stability mCLint” value was determined as 33 µL/min/mg and the “Microsomal Stability t1/2” value is given as 42 min. Further, in [1] (setting [15]), the IC50 is 20 ± 3 nM. For the same compound, the IC50 in [2] stood at 63.9 ± 7.2 nM. For the same compound, in [13], the “Efflux Ratio” value stood at 1.5, the “% Recovery (A-B)” value is recorded as 67%, the “% Recovery (B-A)” value is reported as 74% and the “Pe (A-B)” value was 9.8 10^−6 cm/sec. In addition, the “Pe (B-A)” value in series [13] is 14.6 10^−6 cm/sec. In addition, in series [3], the “% Recovery” value was 44%, the “Mean Permeability” value is 3.43 10^−6 cm/sec and the “Pe (effective permeability)” value is reported as “around 4 10^−6 cm s^−1”. Also, the concentration for half-maximal inhibition (IC50) in series [4] (setting [16]) came to 79 ± 21 nM. The IC50 in [5] (setting [17]) is 99 ± 8.4 nM. Moreover, the IC50 in series [6] (setting [18]) is 45.3 ± 3.1 nM. The “Plasma Stability % remaining” value in [7] (after 2 hr) is listed as 87 after 2 hr %. In [7] (after 5 hr), the “Plasma Stability % remaining” value is listed as “more than 75%”. Also, the 50% inhibitory concentration (IC50) in series [8] (medulloblastoma cell line) turned out to be 14.8 ± 2.3 nM.

For `CC(C)C[C@H](NC(=O)C(CSc1c(F)c(F)c(F)c(F)c1F)NC(=O)[C@@H](NC(=O)c1cc(Cl)ccc1Cl)C(C)C)C(=O)[C@@]1(C)CO1` (stereo in doubt) [Compound 4, 2,5-Dichloro-N-((S)-3-methyl-1-(((S)-1-(((S)-4-methyl-1-((R)-2-methyloxiran-2-yl)-1-oxopentan-2-yl)amino)-1-oxo-3-((perfluorophenyl)thio)propan-2-yl)amino)-1-oxobutan-2-yl)benzamide], in series [9], the “Microsomal Stability Clearance Category” value is recorded as “High”. In addition, the IC50 is under 200 nM in [1] (setting [20]) and 192 ± 70 nM in [1] (setting [15]). The same compound gave a half-life in [10] of under 5 min. For the same compound, the Papp B→A (usually the apparent permeability from the basolateral to the apical side of a cell layer) in series [14] (Caco-2) was found to be 1.3 ×10⁻⁶ cm/s. Moreover, the recovery in series [14] (Caco-2, % Recovery (A-B), Caco-2, A-B direction) came to 27%; in series [14] (Caco-2, % Recovery (B-A), Caco-2, B-A direction), 42%. For the same compound, the share remaining at 2 h in series [7] (after 2 hr) is over 99%. In [7] (after 5 hr), this compound yielded an amount remaining at 5 h of over 75%.

As to `CC(C)C[C@H](NC(=O)[C@@H]1Cc2ccc(cc2)OCCCCCC(=O)N[C@@H](C(C)C)C(=O)N1)C(=O)[C@@]1(C)CO1` [Compound 33, (10S,13S)-10-Isopropyl-N-((S)-4-methyl-1-((R)-2-methyloxiran-2-yl)-1-oxopentan-2-yl)-8,11-dioxo-2-oxa-9,12-diaza-1(1,4)-benzenacyclotetradecaphane-13-carboxamide], the half-inhibitory concentration (IC50) in [1] (setting [15]) was determined as 12.2 ± 0.4 nM; in [2], 32.9 ± 5.9 nM; in [4] (setting [16]), 53 ± 15 nM; in [5] (setting [17]), 81.7 ± 8.6 nM; in series [6] (setting [18]), 67.4 ± 8.4 nM; in series [8] (medulloblastoma cell line), 10.1 ± 2.1 nM. For the same compound, the “% Recovery” value in series [3] is reported as 87%. Further, the “Mean Permeability” value in [3] is 1.49 10^−6 cm/sec.

Turning to `CC(C)C[C@H](NC(=O)C(CSc1c(F)c(F)c(F)c(F)c1F)NC(=O)[C@@H](NC(=O)CCc1ccccc1)C(C)C)C(=O)[C@@]1(C)CO1` (stereo in doubt) [Compound 2, (S)-3-Methyl-N-((S)-1-(((S)-4-methyl-1-((R)-2-methyloxiran-2-yl)-1-oxopentan-2-yl)amino)-1-oxo-3-((perfluorophenyl)thio)propan-2-yl)-2-(3-phenylpropanamido)butanamide], the “Microsomal Stability Clearance Category” value in series [9] is reported as “High”. The results for the IC50 in series [1] (setting [20]), in [1] (setting [15]) and in series [4] (setting [16]) were under 200 nM, 132 ± 22 nM and 632 ± 167 nM, respectively. The compound further registered a half-life in [10] of under 5 min. Moreover, the share remaining at 2 h in series [7] (after 2 hr) was over 99%. In series [7] (after 5 hr), this compound came in with a share remaining at 5 h of over 75%.
